# From US11667651B2, “Aminopyridine derivatives as phosphatidylinositol phosphate kinase inhibitors” (HiberCell, Inc., priority 2017, dated 2023)
# pIC50: −log10 of the molar value.
# Biological target: T1, PIP4K2A (Homo sapiens, UniProt P48426)
# T1 sequence (P48426 1-406): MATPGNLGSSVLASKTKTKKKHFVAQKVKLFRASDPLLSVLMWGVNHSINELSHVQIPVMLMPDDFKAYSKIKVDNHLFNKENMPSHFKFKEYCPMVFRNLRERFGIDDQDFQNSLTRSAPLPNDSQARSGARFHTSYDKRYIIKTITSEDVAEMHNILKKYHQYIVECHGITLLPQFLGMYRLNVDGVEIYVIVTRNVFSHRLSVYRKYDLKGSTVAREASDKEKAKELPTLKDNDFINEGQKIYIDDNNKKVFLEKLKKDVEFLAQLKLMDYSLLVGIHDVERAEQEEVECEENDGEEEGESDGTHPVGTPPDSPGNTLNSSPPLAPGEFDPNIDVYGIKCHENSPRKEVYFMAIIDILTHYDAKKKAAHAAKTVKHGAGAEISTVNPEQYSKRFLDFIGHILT
# Experiment: Kinase Assay PIP4K2 A (Table 2)
# Format: biochemical
# Parameters: 4 nM PIP4K2A (full length protein, SignalChem); purchased SignalChem
# Details: compounds listed under IC50 bins
# Experimental: Dilution series of the compounds were prepared in DMSO at 100 times the final assay concentration (n1=n0/3 in 10 points). The compounds were further diluted to three times the assay concentration in assay buffer (20 mM MOPS pH 7.2, 25 mM magnesium chloride, 0.005% Tween 20). 6 μL of the diluted compounds were added to a 384 well assay plate followed by 9 μL of a mix consisting of 4 nM PIP4K2A (full length protein, SignalChem) and 100 μM PI(5)P diC8 (Tebu-Bio). Enzyme and compounds were pre-incubated at room temperature for 15 minutes.
# Then 3 μL of a solution containing 60 μM ATP (Promega) in assay buffer was added to the wells containing compound and enzyme and mixing was performed by pipetting several times. The reaction was incubated at room temperature for 1 h. Then 18 μL of ADP-Glo™ Reagent (Promega) was added to stop the kinase reaction and deplete the unconsumed ATP, mixing was performed by pipetting several times. The plate was incubated at room temperature for 40 minutes before addition of 36 μL of Kinase Detection Reagent (Promega) to convert ADP to ATP and introduce luciferase and luciferin to detect ATP. The reaction was incubated at room temperature for 40 minutes before the luminescence was measured in a in a Victor 3V 1420 multilabel counter (Perkin Elmer).
# Percent inhibition of the compounds as compared to dimethyl sulfoxide treated control samples was calculated. Compound concentration versus percent inhibition were fitted to generate IC50 values.
row,Compound,pIC50
1,"COc1cncc(Nc2ccc(-c3ccc(C(=O)N(C)C)cc3)cn2)c1 [Example 39, 4-(6-((5-methoxypyridin-3-yl)amino)pyridin-3-yl)-N,N-dimethylbenzamide]",6.00 to 7.00
2,"CN(C)C(=O)c1ccc(-c2ccc(Nc3cncc(C4(C#N)CC4)c3)nc2)cc1 [Example 40, 4-(6-((5-(1-cyanocyclopropyl)pyridin-3-yl)amino)pyridin-3-yl)-N,N-dimethylbenzamide]",7.00 to 8.00
3,"CN(C)C(=O)c1ccc(-c2ccc(Nc3cnc4ccn(S(C)(=O)=O)c4c3)nc2)cc1 [Example 42, N,N-dimethyl-4-(6-((1-(methylsulfonyl)-1H-pyrrolo[3,2-b]pyridin-6-yl)amino)pyridin-3-yl)benzamide]",7.00 to 8.00
4,"CC(=O)N1CCOc2ncc(Nc3ccc(-c4ccc(C(=O)N(C)C)cc4)cn3)cc21 [Example 43, 4-(6-((1-acetyl-2,3-dihydro-1H-pyrido[2,3-b][1,4]oxazin-7-yl)amino)pyridin-3-yl)-N,N-dimethylbenzamide]",8.00 to 9.00
5,"CN(C)C(=O)c1ccc(-c2ccc(Nc3cncc(N4CCOCC4=O)c3)nc2)cc1 [Example 47, N,N-dimethyl-4-(6-((5-(3-oxomorpholino)pyridin-3-yl)amino)pyridin-3-yl)benzamide]",6.00 to 7.00
6,"CN(C)C(=O)c1ccc(-c2ccc(Nc3cncc(CCN4CCOCC4)c3)nc2)cc1 [Example 48, N,N-dimethyl-4-(6-((5-(2-morpholinoethyl)pyridin-3-yl)amino)pyridin-3-yl)benzamide]",6.00 to 7.00
7,"CN(C)C(=O)c1ccc(-c2ccc(Nc3cncc(N(C)C(=O)C4CC4c4ccccc4)c3)nc2)cc1 (stereo not drawn) [Example 52, N,N-dimethyl-4-(6-((5-(N-methyl-2-phenylcyclopropane-1-carboxamido)pyridin-3-yl)amino)pyridin-3-yl)benzamide]",7.00 to 8.00
8,"CN(C)C(=O)c1ccc(-c2ccc(Nc3cncc(CC(=O)NCc4cccnc4)c3)nc2)cc1 [Example 56, N,N-dimethyl-4-(6-((5-(2-oxo-2-((pyridin-3-ylmethyl)amino)ethyl)pyridin-3-yl)amino)pyridin-3-yl)benzamide]",6.00 to 7.00
9,"CN(C)S(=O)(=O)c1ccc(-c2ccc(Nc3cccnc3)nc2)cc1 [Example 63, N,N-dimethyl-4-(6-(pyridin-3-ylamino)pyridin-3-yl)benzenesulfonamide]",6.00 to 7.00
10,"CC(=O)N(C)c1ccc(-c2ccc(Nc3cccnc3)nc2)cc1 [Example 64, N-methyl-N-(4-(6-(pyridin-3-ylamino)pyridin-3-yl)phenyl)acetamide]",< 6.00
11,"O=C(c1ccc(-c2ccc(Nc3cccnc3)nc2)cc1)N1CCCC1 [Example 66, (4-(6-(pyridin-3-ylamino)pyridin-3-yl)phenyl)(pyrrolidin-1-yl)methanone]",< 6.00
12,"CCN(C)C(=O)c1ccc(-c2ccc(Nc3cccnc3)nc2)cc1 [Example 68, N-ethyl-N-methyl-4-(6-(pyridin-3-ylamino)pyridin-3-yl)benzamide]",6.00 to 7.00
13,"CN(Cc1ccco1)C(=O)c1ccc(-c2ccc(Nc3cccnc3)nc2)cc1 [Example 69, N-(furan-2-ylmethyl)-N-methyl-4-(6-(pyridin-3-ylamino)pyridin-3-yl)benzamide]",6.00 to 7.00
14,"CN(Cc1cccnc1)C(=O)c1ccc(-c2ccc(Nc3cccnc3)nc2)cc1 [Example 70, N-methyl-4-(6-(pyridin-3-ylamino)pyridin-3-yl)-N-(pyridin-3-ylmethyl)benzamide]",< 6.00
15,"CN(C)C(=O)c1ccc(-c2ccc(Nc3cncc(N4CCNC4=O)c3)nc2)cc1 [Example 75, N,N-dimethyl-4-(6-((5-(2-oxoimidazolidin-1-yl)pyridin-3-yl)amino)pyridin-3-yl)benzamide]",7.00 to 8.00
16,"CN(C)C(=O)c1ccc(-c2ccc(Nc3cncc(N4CCN(CC5CCCO5)C4=O)c3)nc2)cc1 (stereo not drawn) [Example 77, N,N-dimethyl-4-(6-((5-(2-oxo-3-((tetrahydrofuran-2-yl)methyl)imidazolidin-1-yl)pyridin-3-yl)amino)pyridin-3-yl)benzamide]",7.00 to 8.00
17,"CN(C)C(=O)c1ccc(-c2ccc(Nc3cncc(N4CCN(Cc5cscn5)C4=O)c3)nc2)cc1 [Example 78, N,N-dimethyl-4-(6-((5-(2-oxo-3-(thiazol-4-ylmethyl)imidazolidin-1-yl)pyridin-3-yl)amino)pyridin-3-yl)benzamide]",8.00 to 9.00
18,"CN(C)C(=O)c1ccc(-c2ccc(Nc3cncc(N4CCN(CC5CC5)C4=O)c3)nc2)cc1 [Example 79, 4-(6-((5-(3-(cyclopropylmethyl)-2-oxoimidazolidin-1-yl)pyridin-3-yl)amino)pyridin-3-yl)-N,N-dimethylbenzamide]",7.00 to 8.00
19,"O=C1CCCN1c1ccc(-c2ccc(Nc3cccnc3)nc2)cc1 [Example 82, 1-(4-(6-(pyridin-3-ylamino)pyridin-3-yl)phenyl)pyrrolidin-2-one]",6.00 to 7.00
20,"CN(C)C(=O)c1ccc(-c2ccc(Nc3cnc4c(c3)N(S(C)(=O)=O)CCO4)nc2)cc1 [Example 217, N,N-dimethyl-4-(6-((1-(methylsulfonyl)-2,3-dihydro-1H-pyrido[2,3-b][1,4]oxazin-7-yl)amino)pyridin-3-yl)bnzamide]",7.00 to 8.00
21,"CNC(=O)c1ccc(-c2ccc(Nc3cncc(N4CCCC4=O)c3)nc2)cc1 [Example 219, N-methyl-4-(6-((5-(2-oxopyrrolidin-1-yl)pyridin-3-yl)amino)pyridin-3-yl)benzamide]",< 6.00
22,"CC(=O)Nc1ccc(-c2ccc(C(=O)N(C)C)cc2)cn1 [Example 220, 4-(6-acetamidopyridin-3-yl)-N,N-dimethylbenzamide]",< 6.00

# Next, values leading:
row,pIC50,Compound
1,6.00 to 7.00,"CN(C)C(=O)c1ccc(-c2ccc(Nc3cncc(C4(C(N)=O)CC4)c3)nc2)cc1 [Example 41, 4-(6-((5-(1-carbamoylcyclopropyl)pyridin-3-yl)amino)pyridin-3-yl)-N,N-dimethylbenzamide]"
2,7.00 to 8.00,"CN(C)C(=O)c1ccc(-c2ccc(Nc3cncc(N4Cc5ccccc5C4=O)c3)nc2)cc1 [Example 53, N,N-dimethyl-4-(6-((5-(1-oxoisoindolin-2-yl)pyridin-3-yl)amino)pyridin-3-yl)benzamide]"
3,< 6.00,"CN(C)C(=O)c1ccc(-c2ccc(Nc3ccc(=O)n(Cc4ccccc4)c3)nc2)cc1 [Example 54, 4-(6-((1-benzyl-6-oxo-1,6-dihydropyridin-3-yl)amino)pyridin-3-yl)-N,N-dimethylbenzamide]"
4,6.00 to 7.00,"CC(C)[C@@H]1NC(=O)N(c2cncc(Nc3ccc(-c4ccc(C(=O)N(C)C)cc4)cn3)c2)C1=O [Example 57, (S)-4-(6-((5-(4-isopropyl-2,5-dioxoimidazolidin-1-yl)pyridin-3-yl)amino)pyridin-3-yl)-N,N-dimethylbenzamide]"
5,6.00 to 7.00,"Cn1cnnc1-c1ccc(-c2ccc(Nc3cccnc3)nc2)cc1 [Example 65, 5-(4-(4-methyl-4H-1,2,4-triazol-3-yl)phenyl)-N-(pyridin-3-yl)pyridin-2-amine]"
6,6.00 to 7.00,"CN(Cc1ccccc1)C(=O)c1ccc(-c2ccc(Nc3cccnc3)nc2)cc1 [Example 67, N-benzyl-N-methyl-4-(6-(pyridin-3-ylamino)pyridin-3-yl)benzamide]"
7,7.00 to 8.00,"CN(C)C(=O)c1ccc(-c2ccc(Nc3cncc(N4CCN(C)C4=O)c3)nc2)cc1 [Example 72, N,N-dimethyl-4-(6-((5-(3-methyl-2-oxoimidazolidin-1-yl)pyridin-3-yl)amino)pyridin-3-yl)benzamide]"
8,8.00 to 9.00,"COc1ccc(CN2CCN(c3cncc(Nc4ccc(-c5ccc(C(=O)N(C)C)cc5)cn4)c3)C2=O)cc1 [Example 74, 4-(6-((5-(3-(4-methoxybenzyl)-2-oxoimidazolidin-1-yl)pyridin-3-yl)amino)pyridin-3-yl)-N,N-dimethylbenzamide]"
9,8.00 to 9.00,"CN(C)C(=O)c1ccc(-c2ccc(Nc3cncc(N4CCN(Cc5cccnc5)C4=O)c3)nc2)cc1 [Example 76, N,N-dimethyl-4-(6-((5-(2-oxo-3-(pyridin-3-ylmethyl)imidazolidin-1-yl)pyridin-3-yl)amino)pyridin-3-yl)benzamide]"
10,6.00 to 7.00,"CN(C)C(=O)Cc1cncc(Nc2ccc(-c3ccc(C(=O)N(C)C)cc3)cn2)c1 [Example 218, 4-(6-((5-(2-(dimethylamino)-2-oxoethyl)pyridin-3-yl)amino)pyridin-3-yl)-N,N-dimethylbenzamide]"
11,< 6.00,"CN(C)C(=O)c1ccc(-c2ccc(Nc3cc[nH]c(=O)c3)nc2)cc1 [Example 221, N,N-dimethyl-4-(6-((2-oxo-1,2-dihydropyridin-4-yl)amino)pyridin-3-yl)benzamide]"
